Bounds are passed on as bounds.

In this assay the test system is human cytomegalovirus (HCMV). The assay can be described thus: microbe, parasite or virus in culture. Format: cell-based. The following applies: Human MRCS cells, 0.01 IU per cell, virus yield at 7 days post infection, mCherry positive cells.

In the case of `CC(C)c1cc(Cc2cnc(N3CCc4ccc(-c5cn(C)nn5)cc4C3)s2)cc(-n2cccn2)c1` [Example 1], where the note is “Human betaherpesvirus 5, 168 h”, 11700 nM corresponded to half-maximal inhibition (IC50).
Compound `Cn1cc(-c2ccc3c(c2)CN(c2ncc(Cc4ccc(-n5cccn5)cc4)s2)CC3)nn1` [Example 2] gave an IC50 (Human betaherpesvirus 5, 168 h) of 1170 nM.
As to `Cn1cc(-c2ccc3c(c2)CN(c2ncc(Cc4cccc(-n5cccn5)c4)s2)CC3)nn1` [Example 3], the IC50 (Human betaherpesvirus 5, 168 h) came out at 1910 nM.
Same read-out and setting: next, `c1cc(Cc2cnc(N3CCc4ccc(-c5c[nH]nn5)cc4C3)s2)cc(-n2cccn2)c1` [Example 4]: 758 nM.
Take `c1cnn(-c2ccc(Cc3cnc(N4CCc5ccc(-c6c[nH]nn6)cc5C4)s3)cc2)c1` [Example 5]: under “Human betaherpesvirus 5, 168 h”, half-maximal inhibition (IC50) required 807 nM.
On the same count and under the same terms, next, `Cc1nc(-c2ccc3c(c2)CN(c2ncc(Cc4ccc(-n5cccn5)cc4)s2)CC3)no1` [Example 6]: 3370 nM; `COCCn1nncc1-c1ccc2c(c1)CN(c1ncc(Cc3ccc(-n4cccn4)cc3)s1)CC2` [Example 7]: 1700 nM; `COCCn1nncc1-c1ccc2c(c1)CN(c1ncc(Cc3cccc(-n4cccn4)c3)s1)CC2` [Example 8]: 2010 nM.
The same measure, in the same setting: next, `c1cnn(-c2ccc(Cc3cnc(N4CCc5ccc(-n6ccnc6)cc5C4)s3)cc2)c1` [Example 9]: 479 nM; `COCCn1cc(-c2ccc3c(c2)CN(c2ncc(Cc4ccc(-n5cccn5)cc4)s2)CC3)nn1` [Example 11]: 1700 nM; `COCCn1cc(-c2ccc3c(c2)CN(c2ncc(Cc4cccc(-n5cccn5)c4)s2)CC3)nn1` [Example 12]: 5980 nM.
As for `Cc1cn(-c2ccc3c(c2)CN(c2ncc(Cc4ccc(-n5cccn5)cc4)s2)CC3)cn1` [Example 13], under “Human betaherpesvirus 5, 168 h”, half-maximal inhibition (IC50) required 1060 nM.
On the same count and under the same terms, for `Cc1cn(-c2ccc3c(c2)CN(c2ncc(Cc4ccc(-n5cccn5)cc4)s2)CC3)c(C)n1` [Example 14] the value was 453 nM.
`c1cc(Cc2cnc(N3CCc4ccc(-c5nc[nH]n5)cc4C3)s2)cc(-n2cccn2)c1` [Example 15]: for the setting “Human betaherpesvirus 5, 168 h”, the IC50 was 1850 nM.
Still for that read-out and setting: next, `c1cnn(-c2ccc(Cc3cnc(N4CCc5ccc(-c6nc[nH]n6)cc5C4)s3)cc2)c1` [Example 16]: 200 nM; `c1cn(-c2ccc(Cc3cnc(N4CCc5ccc(-n6ccnc6)cc5C4)s3)cc2)cn1` [Example 17]: 748 nM.
As to `c1cnn(-c2ccc(Cc3cnc(N4CCc5cc(-n6ccnc6)ccc5C4)s3)cc2)c1` [Example 18], it took 1080 nM to reach half-maximal inhibition (IC50).
Where the note is “Human betaherpesvirus 5, 168 h”, `Cc1cn(-c2ccc3c(c2)CN(c2ncc(Cc4cccc(-n5cccn5)c4)s2)CC3)c(C)n1` [Example 19] had an IC50 of 1300 nM.
On the same count and under the same terms, next, `c1cnn(-c2ccc(Cc3cnc(N4CCc5ccc(-c6ncc[nH]6)cc5C4)s3)cc2)c1` [Example 20]: 5270 nM.
Under “Human betaherpesvirus 5, 168 h”, `Cc1cn(-c2ccc3c(c2)CN(c2ncc(Cc4cccc(-n5cccn5)c4)s2)CC3)cn1` [Example 21] came in with an IC50 of 2620 nM.
On the same count and under the same terms, next, `COc1ccc(Cc2cnc(N3CCc4ccc(-n5cc(C)nc5C)cc4C3)s2)cc1-n1cccn1` [Example 22]: 306 nM.
On the same count and under the same terms, for `Cc1cn(-c2ccc(Cc3cnc(N4CCc5ccc(-n6cc(C)nc6C)cc5C4)s3)cc2)c(C)n1` [Example 23] the value was 707 nM; for `O=C1OCCN1c1ccc2c(c1)CN(c1ncc(Cc3ccc(-n4cccn4)cc3)s1)CC2` [Example 24], 353 nM; for `O=C1NCCN1c1ccc2c(c1)CN(c1ncc(Cc3ccc(-n4cccn4)cc3)s1)CC2` [Example 25], 911 nM.
The same measure, in the same setting: for `CN1CCN(c2ccc3c(c2)CN(c2ncc(Cc4ccc(-n5cccn5)cc4)s2)CC3)C1=O` [Example 26] the value was 637 nM; for `COc1cc(Cc2cnc(N3CCc4ccc(-n5cc(C)nc5C)cc4C3)s2)ccc1-n1cccn1` [Example 27], 345 nM; for `O=C1OCCN1c1ccc2c(c1)CN(c1ncc(Cc3cccc(-n4cccn4)c3)s1)CC2` [Example 28], 1890 nM.
`O=C1OCCN1c1ccc2c(c1)CN(c1ncc(Cc3ccc(-c4ncccn4)cc3)s1)CC2` [Example 29] returned an IC50 (Human betaherpesvirus 5, 168 h) of 858 nM.
Compound `N#Cc1ccc(Cc2cnc(N3CCc4ccc(N5CCOC5=O)cc4C3)s2)cc1` [Example 30] showed an IC50 (Human betaherpesvirus 5, 168 h) of 4420 nM.
Still for that read-out and setting: for `O=C1OCCN1c1ccc2c(c1)CN(c1ncc(Cc3ccc(N4CCOCC4)cc3)s1)CC2` [Example 31] the value was 803 nM; for `O=C1OCCN1c1ccc(Cc2cnc(N3CCc4ccc(N5CCOC5=O)cc4C3)s2)cc1` [Example 32], 979 nM; for `O=C1OCCN1c1ccc2c(c1)CN(c1ncc(Cc3cccc(N4CCS(=O)(=O)CC4)c3)s1)CC2` [Example 33], 903 nM.
Take `CS(=O)(=O)c1cccc(Cc2cnc(N3CCc4ccc(N5CCOC5=O)cc4C3)s2)c1` [Example 34]: under “Human betaherpesvirus 5, 168 h”, the IC50 was found to be 633 nM.
Still for that read-out and setting: next, `O=C1OCCN1c1ccc2c(c1)CN(c1ncc(Cc3cccc(N4CCOCC4)c3)s1)CC2` [Example 35]: 891 nM.
Still for that read-out and setting: next, `O=C1OCCN1c1ccc2c(c1)CN(c1ncc(Cc3ccc(N4CCS(=O)(=O)CC4)cc3)s1)CC2` [Example 36]: 666 nM.
Still for that read-out and setting: next, `O=C1NCCCN1c1ccc2c(c1)CN(c1ncc(Cc3ccc(-n4cccn4)cc3)s1)CC2` [Example 37]: 9960 nM; `CN1CCCN(c2ccc3c(c2)CN(c2ncc(Cc4ccc(-n5cccn5)cc4)s2)CC3)C1=O` [Example 38]: 3490 nM.
In the case of `N#Cc1cccc(Cc2cnc(N3CCc4ccc(N5CCOC5=O)cc4C3)s2)c1` [Example 39], the IC50 (Human betaherpesvirus 5, 168 h) turned out to be 2740 nM.
Compound `O=C1OCCN1c1cccc(Cc2cnc(N3CCc4ccc(N5CCOC5=O)cc4C3)s2)c1` [Example 40] displayed an IC50 (Human betaherpesvirus 5, 168 h) of 956 nM.
The same measure, in the same setting: next, `O=C1OCCN1c1ccc2c(c1)CN(c1ncc(Cc3ccc(-n4cccn4)nc3)s1)CC2` [Example 41]: 553 nM; `O=C1COCCN1c1ccc2c(c1)CN(c1ncc(Cc3ccc(-n4cccn4)cc3)s1)CC2` [Example 42]: 2470 nM; `CS(=O)(=O)c1ccc(Cc2cnc(N3CCc4ccc(N5CCOC5=O)cc4C3)s2)cc1` [Example 43]: 617 nM.
Consider `Cc1cn(-c2ccc(Cc3cnc(N4CCc5ccc(N6CCOC6=O)cc5C4)s3)cc2)c(C)n1` [Example 44], for which, for the setting “Human betaherpesvirus 5, 168 h”, the IC50 stood at 552 nM.
Under “Human betaherpesvirus 5, 168 h”, `COCCN1CCCN(c2ccc3c(c2)CN(c2ncc(Cc4ccc(-n5cccn5)cc4)s2)CC3)C1=O` [Example 45] came in with an IC50 of 1780 nM.
Still for that read-out and setting: next, `Cc1cn(-c2ccc3c(c2)CN(c2ncc(Cc4ccc(N5CCOCC5)cc4)s2)CC3)c(C)n1` [Example 46]: 605 nM.
On the same count and under the same terms, next, `Cc1cnc(C)n1-c1ccc2c(c1)CN(c1ncc(Cc3ccc(N4CCOCC4)cc3)s1)CC2` [Example 47]: 796 nM; `Cc1cn(-c2ccc3c(c2)CN(c2ncc(Cc4ccc(N5CCS(=O)(=O)CC5)cc4)s2)CC3)c(C)n1` [Example 48]: 195 nM; `O=C1CCCN1c1ccc2c(c1)CN(c1ncc(Cc3ccc(-c4ncccn4)cc3)s1)CC2` [Example 49]: 516 nM.
`O=C1CCCN1c1ccc2c(c1)CN(c1ncc(Cc3ccc(N4CCOCC4)cc3)s1)CC2` [Example 50] showed an IC50 (Human betaherpesvirus 5, 168 h) of 613 nM.
Compound `O=C1CCCN1c1ccc2c(c1)CN(c1ncc(Cc3ccc(N4CCS(=O)(=O)CC4)cc3)s1)CC2` [Example 51] yielded an IC50 (Human betaherpesvirus 5, 168 h) of 737 nM.
Still for that read-out and setting: next, `CN1CCN(c2ccc3c(c2)CN(c2ncc(Cc4ccc(-c5ncccn5)cc4)s2)CC3)C1=O` [Example 52]: 1360 nM; `O=C1NCCN1c1ccc2c(c1)CN(c1ncc(Cc3ccc(-c4ncccn4)cc3)s1)CC2` [Example 53]: above 4170 nM; `c1cnc(-c2ccc(Cc3cnc(N4CCc5ccc(N6CCOCC6)cc5C4)s3)cc2)nc1` [Example 54]: 1100 nM.
On the same count and under the same terms, next, `O=C1OCCN1c1ccc2c(c1)CN(c1ncc(Cc3cncc(-n4cccn4)c3)s1)CC2` [Example 55]: 3830 nM.
Same read-out and setting: next, `Cc1cn(-c2ccc3c(c2)CN(c2ncc(Cc4ccc(N5CCOC5=O)cc4)s2)CC3)c(C)n1` [Example 56]: 317 nM; `CN1CCN(c2ccc3c(c2)CN(c2ncc(Cc4ccc(N5CCOC5=O)cc4)s2)CC3)C1=O` [Example 57]: 742 nM.
Consider `O=C1OCCN1c1ccc(Cc2cnc(N3CCc4ccc(N5CCOCC5)cc4C3)s2)cc1` [Example 58], for which the IC50 (Human betaherpesvirus 5, 168 h) stood at 1130 nM.
The same measure, in the same setting: for `CN1CCCN(c2ccc3c(c2)CN(c2ncc(Cc4ccc(C5CCOCC5)cc4)s2)CC3)C1=O` [Example 59] the value was 730 nM.
The compound `CN1CCCN(c2ccc3c(c2)CN(c2ncc(Cc4ccc(N5CCOCC5)cc4)s2)CC3)C1=O` [Example 60] had an IC50 (Human betaherpesvirus 5, 168 h) of 9840 nM.
Take `CN1CCCN(c2ccc3c(c2)CN(c2ncc(Cc4ccc(S(C)(=O)=O)cc4)s2)CC3)C1=O` [Example 61]: the IC50 (Human betaherpesvirus 5, 168 h) is 4710 nM.
`O=C1OCCN1c1ccc2c(c1)CN(c1ncc(Cc3ccc(C4CCOCC4)cc3)s1)CC2` [Example 62] returned an IC50 (Human betaherpesvirus 5, 168 h) of 362 nM.
The same measure, in the same setting: for `Cc1cn(-c2ccc3c(c2)CN(c2nc(Cc4cccc(-n5cccn5)c4)cs2)CC3)c(C)n1` [Example 66] the value was 4480 nM; for `Cc1cn(-c2ccc3c(c2)CN(c2ncc(Cc4cncc(-n5cccn5)c4)s2)CC3)c(C)n1` [Example 67], 1190 nM; for `O=C1OCCCN1c1ccc2c(c1)CN(c1ncc(Cc3ccc(-n4cccn4)cc3)s1)CC2` [Example 69], 4900 nM.
Compound `CN1CCN(c2ccc3c(c2)CN(c2ncc(Cc4ccc(-n5cccn5)cc4)s2)CC3)CC1=O` [Example 70] displayed an IC50 (Human betaherpesvirus 5, 168 h) of 2140 nM.
Still for that read-out and setting: for `O=C1CN(c2ccc3c(c2)CN(c2ncc(Cc4ccc(-n5cccn5)cc4)s2)CC3)CCN1` [Example 71] the value was 10000 nM; for `c1cnn(-c2ccc(Cc3cnc(N4CCc5ccc(N6CCOCC6)cc5C4)s3)cc2)c1` [Example 72], 537 nM.
For the setting “Human betaherpesvirus 5, 168 h”, `O=C1CCCN1c1ccc2c(c1)CN(c1ncc(Cc3ccc(-n4cccn4)cc3)s1)CC2` [Example 73] displayed an IC50 of 423 nM.

The values are drawn from patent US11459321B2, “Broad spectrum antiviral compositions and methods” (priority 2017, dated 2022).
